According to publication PMC9146896, “Uracil as a Zn-Binding Bioisostere of the Allergic Benzenesulfonamide in the Design of Quinoline–Uracil Hybrids as Anticancer Carbonic Anhydrase Inhibitors” (Pharmaceuticals, 2022):
Values joined by “and” are separate entries in the source; they are usually repeats but may differ in a detail not shown here. Identical values can stand only once. Like-named read-outs stand apart in the source and are kept apart here.

Tests used:
hCA II [1] = biological target: T1, hCA II (Homo sapiens, UniProt P00918); test: Carbonic anhydrase inhibition, colorimetric method (BioVision CA Inhibitor Screening Kit)
hCA IX [2] = biological target: T2, hCA IX (Homo sapiens, UniProt Q16790); test: as above; conditions: for Selectivity index I/IX: hCA IX over hCA I; for Selectivity index II/IX: hCA IX over hCA II
[3] = system: breast cancer cell line (MCF-7); test: Antiproliferative activity, MTT assay under hypoxic conditions; conditions: Homo sapiens, MCF7, read-out: Cytotoxicity IC50 MCF7
hCA XII [4] = biological target: T3, hCA XII (Homo sapiens, UniProt O43570); test: Carbonic anhydrase inhibition, colorimetric method (BioVision CA Inhibitor Screening Kit); conditions: for Selectivity index I/XII: hCA XII over hCA I; for Selectivity index II/XII: hCA XII over hCA II
T3 sequence (O43570 25-354): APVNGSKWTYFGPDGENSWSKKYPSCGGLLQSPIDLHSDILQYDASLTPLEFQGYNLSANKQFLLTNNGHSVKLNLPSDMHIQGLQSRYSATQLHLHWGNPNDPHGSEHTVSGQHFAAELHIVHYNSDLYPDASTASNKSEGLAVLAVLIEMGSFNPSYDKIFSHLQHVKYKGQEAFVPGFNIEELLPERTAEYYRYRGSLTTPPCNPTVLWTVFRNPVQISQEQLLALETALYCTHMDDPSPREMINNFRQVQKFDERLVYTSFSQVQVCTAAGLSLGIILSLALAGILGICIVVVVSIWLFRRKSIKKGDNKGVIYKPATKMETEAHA

Bax [5] = test: Assessment of apoptotic marker levels: Bax in A549; format: cell-based
Excerpt: (§1) The two cytoplasmic proteins, B-cell lymphoma protein 2 (Bcl-2) and its associated X protein (Bax), are essential for apoptosis in normal cells. Bax is a promoter and Bcl-2 is an inhibitor of apoptosis. Thus, the effect of 10d and 10l on apoptotic markers Bax and Bcl-2 in a breast cancer cell line (MCF-7) and a lung cancer cell line (A549) has been estimated.

hCA I [6] = biological target: T4, hCA I (Homo sapiens, UniProt P00915); test: Carbonic anhydrase inhibition, colorimetric method (BioVision CA Inhibitor Screening Kit)
T4 sequence (P00915 whole entry): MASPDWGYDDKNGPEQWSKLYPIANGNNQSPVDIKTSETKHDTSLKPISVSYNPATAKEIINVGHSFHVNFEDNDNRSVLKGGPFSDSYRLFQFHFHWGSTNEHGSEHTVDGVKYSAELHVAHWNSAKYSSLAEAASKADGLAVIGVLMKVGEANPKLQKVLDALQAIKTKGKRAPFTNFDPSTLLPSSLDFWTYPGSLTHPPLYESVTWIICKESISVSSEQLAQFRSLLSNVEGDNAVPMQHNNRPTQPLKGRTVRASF

Bcl-2 [7] = test: Assessment of apoptotic marker levels: Bcl-2 in A549; format: cell-based
Excerpt: as §1

Bax [8] = test: Assessment of apoptotic marker levels: Bax in MCF-7; format: cell-based
Excerpt: as §1

Bcl-2 [9] = test: Assessment of apoptotic marker levels: Bcl-2 in MCF-7; format: cell-based
Excerpt: as §1

[10] = system: lung cancer cell line (A549); test: Antiproliferative activity, MTT assay under hypoxic conditions; format: cell-based; conditions: Homo sapiens, read-out: Cytotoxicity IC50 A549
hCA IX [11] = biological target: T2, hCA IX; design: method as in PMID 34681794; conditions: cited from earlier work
hCA XII [12] = biological target: T3, hCA XII; design: method as in PMID 34681794; conditions: cited from earlier work
hCA II [13] = biological target: T1, hCA II; conditions: range, quinoline-based sulfonamides; cited from earlier work
hCA I [14] = biological target: T4, hCA I; conditions: range, quinoline-based sulfonamides; cited from earlier work

| IC50 (hCA II [1]) | Ki (hCA II [1]) | IC50 (hCA IX [2]) | Ki (hCA IX [2]) | Selectivity index I/IX (hCA IX [2]) | Selectivity index II/IX (hCA IX [2]) | IC50 (hCA XII [4]) | Ki (hCA XII [4]) | Selectivity index I/XII (hCA XII [4]) | Selectivity index II/XII (hCA XII [4]) | melting point | IC50 (hCA I [6]) | Ki (hCA I [6]) | Structure (SMILES) | IC50 [3] | Bax (Bax [5]) | Bax level relative to the control (Bax [5]) | Bcl2 (Bcl-2 [7]) | Bcl-2 level in comparison with the control (Bcl-2 [7]) | Bax (Bax [8]) | Bax level relative to the control (Bax [8]) | also measured |
| --- | --- | --- | --- | --- | --- | --- | --- | --- | --- | --- | --- | --- | --- | --- | --- | --- | --- | --- | --- | --- | --- |
| 260 nM | 140 nM | 220 nM | 120 nM | 1.09 | 1.21 | 190 nM | 110 nM | 1.24 | 1.37 | 298 to 300 °C | 230 nM | 130 nM | Cn1c(N)c(/N=C/c2cc3ccccc3[nH]c2=O)c(=O)[nH]c1=O [Compound 10d, (E)-6-Amino-1-methyl-5-(((2-oxo-1,2-dihydroquinolin-3-yl)methylene)amino) pyrimidine-2,4(1H,3H)-dione] | 2870 ± 50 nM | 278.6 ± 9.14 pg/mL | nearly six-fold | 2.841 ± 0.01 nm/mL | downregulated | 403.1 ± 4.69 pg/mL | nearly six-fold | Bcl2 (Bcl-2 [9]): 2.587 ± 0.03 nm/mL; Bcl-2 level in comparison with the control (Bcl-2 [9]): downregulated; IC50 [10]: 11800 ± 220 nM |
| 1880 nM | 1040 nM | 140 nM | 80 nM | 1.75 | 13.20 | 190 nM | 110 nM | 1.29 | 9.75 | 295 to 297 °C | 250 nM | 140 nM | COc1ccc2[nH]c(=O)c(/C=N/c3c(N)n(C)c(=S)[nH]c3=O)cc2c1 [Compound 10l, (E)-3-(((6-Amino-1-methyl-4-oxo-2-thioxo-1,2,3,4-tetrahydropyrimidin-5-yl)imino)methyl)-6-methoxyquinolin-2(1H)-one] | 4080 ± 80 nM | 208.4 ± 4.07 pg/mL | nearly six-fold | 4.605 ± 0.28 nm/mL | downregulated | 337.2 ± 7.55 pg/mL | nearly six-fold | Bcl2 (Bcl-2 [9]): 3.296 ± 0.09 nm/mL; Bcl-2 level in comparison with the control (Bcl-2 [9]): downregulated; IC50 [10]: 26100 ± 560 nM |
| – | – | – | – | – | – | – | – | – | – | – | – | – | NS(=O)(=O)c1cc(Nc2ccnc3ccc(Cl)cc23)ccc1Cl [Compound II] | – | – | – | – | – | – | – | Ki (hCA IX [11]): 18.6 nM and 19 nM; Ki (hCA XII [12]): 9 nM |
| – | – | – | – | – | – | – | – | – | – | – | – | – | CCOC(=O)c1cnc2cc(Cl)c(F)cc2c1Nc1cccc(S(N)(=O)=O)c1 [Compound I] | – | – | – | – | – | – | – | Ki (hCA II [13]): 83 to 3590 nM; Ki (hCA I [14]): 966 to 9090 nM and 960 to 9090 nM |
